# Measurements taken from US10918585B2, “Anti-aging agent and anti-aging composition for skin” (SHOWA DENKO K.K., priority 2015, dated 2021).
# Tests used:
# collagen genes = experiment: Expression of collagen genes in normal human fibroblasts (quantitative real-time PCR, standardized to GAPDH); type: cell-based; details: NB1RGB cells, 24 hours
# Experimental: (§1) The gene expression of collagen and elastin in normal human fibroblasts was examined. Further, it has been known that a decrease in expression level of collagen and elastin due to cellular aging causes wrinkles.
# (§2) NB1RGB cells (purchased from Riken BioResource Center), which are normal human fibroblasts, were seeded in a plastic dish at a seeding density of 10000 cells/cm^2 and cultured in Dulbecco's Modified Eagle's medium (DMEM) (manufactured by Sigma-Aldrich Corporation) containing 10% fetal bovine serum for 24 hours. Thereafter, each inositol derivative of Examples 1 to 6 and Comparative Example 1 in a state of being dissolved in purified water was added to the medium at a final concentration of 0.01 w/v % and further cultured for 24 hours. […]
# (§3) Next, total RNA was extracted from cells of each group to synthesize cDNA. Next, the expression levels of collagen genes and elastin genes in NB1RGB cells of each group were quantified by performing quantitative real-time PCR using the cDNA as a template. Further, the expression level of glyceraldehyde-3-phospahte dehydrogenase (GAPDH), which is a housekeeping gene, was quantified as an internal standard gene, and the expression levels of collagen genes and elastin genes were respectively standardized based on the expression level of the GAPDH genes in the NB1RGB cells of each group. […]
# elastin genes = experiment: Expression of elastin genes in normal human fibroblasts (quantitative real-time PCR, standardized to GAPDH); type: cell-based; details: NB1RGB cells, 0.001 w/v % myo-inositol, 24 hours, purified water = 1.00
# Experimental: as §1, §2, §3
smiles,measurement,setting,value
O[C@H]1[C@H](O)[C@@H](O)[C@H](O)[C@@H](O)[C@H]1O [myo-Inositol],Expression level of genes (relative value) Collagen,"collagen genes; 0.001 w/v % myo-inositol, standardized to GAPDH, purified water = 1.00",0.54 relative value
same,Expression of collagen genes compared to the purified water as a control (in words),"collagen genes; inositol derivatives 0.01 w/v %, myo-inositol 0.001 w/v %",a decrease in expression of collagen genes was shown
same,Expression level of genes (relative value) Elastin,elastin genes,1.23 relative value
